# Assay results taken from PubChem BioAssay (NCI).
#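 Briefly, cells in 96-well plates were exposed to five compound concentrations for 48 h, and endpoints were estimated by linear interpolation. Here, GI50 denotes the concentration required for 50% inhibition of growth. Definition used: TGI = concentration required for complete inhibition of growth.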 Where a SMILES comes first, the peptide text is derived from it.
# Experiments:
# Assay in all cases: NCI tumour cell line growth inhibition, 48 h
# SNB-78 CNS = tested on: SNB-78 CNS
# KM20L2 colon = tested on: KM20L2 colon
# HOP-18 NSCLC = tested on: HOP-18 NSCLC
# P388 leukemia = tested on: P388 leukemia
# SN12K1 renal = tested on: SN12K1 renal
# P388/ADR leukemia = tested on: P388/ADR leukemia
# DLD-1 colon = tested on: DLD-1 colon
# M19-MEL melanoma = tested on: M19-MEL melanoma
# XF 498 CNS = tested on: XF 498 CNS
# LXFL 529 NSCLC = tested on: LXFL 529 NSCLC
SMILES,TGI (SNB-78 CNS) [µM],TGI (KM20L2 colon) [µM],TGI (HOP-18 NSCLC) [µM],TGI (P388 leukemia) [µM],TGI (SN12K1 renal) [µM],TGI (P388/ADR leukemia) [µM],TGI (DLD-1 colon) [µM],TGI (M19-MEL melanoma) [µM],TGI (XF 498 CNS) [µM],TGI (LXFL 529 NSCLC) [µM],GI50 (SNB-78 CNS) [µM]
CN(C)c1nc(N(C)C)nc(N(C)C)n1,> 150,> 150,87.3,> 150,> 150,> 136,> 150,> 148,> 116,> 150,–
C=C1C(=O)O[C@@H]2[C@H]3O[C@]3(C)CCC=C(C)CC[C@@H]12,62,62.2,28.3,175,37.9,27.9,28.4,33.7,32.4,–,–
CC1NC(=O)CNC(=O)CNC(=O)C(Cc2ccc(O)cc2)NC(=O)C(C(C)C)NC(=O)C(C)NC1=O (stereo unspecified) (cyclo(GGAAVY); configuration not given here),> 100,–,> 100,> 100,> 100,> 100,> 100,> 100,> 100,–,> 100
CC1=C2C(O)C(C(C)C(=O)NCC(C)C)CCC2(C)C=CC1=O (stereo unspecified),> 100,> 100,> 100,> 100,> 100,> 100,> 100,> 100,> 100,–,–
CCCCCC(CN1CCOCC1)C(=O)/C=C/c1ccccc1 (stereo unspecified),–,10.9,–,–,–,–,–,7.05,3.29,–,–
O=C1C=CC(=O)c2c1ccc1c3ccccc3n(-c3ccccn3)c21,> 100,–,29.1,–,–,–,30.6,41.6,29.3,28.5,–
